Legend:
Type in all cases: cell-based, human
HuS-E/2 cells = test: MTT cell viability / cytotoxicity assay; details: 24 h
Description: To determine the cytotoxicity of CX, HuS-E/2 cells were incubated with CX at the concentrations indicated for 24 hours. The CX stock solution was 200 mM in dimethyl sulfoxide (DMSO; Cat. 15578544, J. T. Baker, USA), and stored at −20° C.
The procedure regarding cell culture of immortalized primary human hepatocytes HuS-E/2 cells is as follows. HuS-E/2 cell line, kindly provided by Dr. Shimotohno (Kyoto University, Japan), were maintained in primary hepatocyte medium (PH medium), containing 20 mM HEPES, 10% fetal bovine serum, 15 μg/mL L-proline, 0.25 μg/mL insulin, 50 nM dexamethasone, 44 mM NaHCO3, 10 mM nicotinamide, 5 ng/ml EGF, 0.1 mM Asc-2P, 100 IU/mL penicillin, 100 μg/mL streptomycin, 10 μg/mL gentamicin, and 1 μg/mL plasmocin in high-glucose Dulbeco's modified Eagle medium (DMEM). Cells were incubated at 37° C. in an incubator supplied with 5% CO2.
3-(4,5-dimethylthiazol-2-yl)-2,5-diphenyltetrazolium bromide (MTT) (Cat. M5655) (Sigma-Aldrich, USA) stock solution was 5 mg/mL in 1×phosphate-buffered saline (PBS), and stored at −20° C.
The procedure regarding cell viability is as follows. HuS-E/2 cells were seeded at 4.5×10^4 cells/well in a 96-well plate and were incubated with 0-1600 μM CX for 24 h. MTT was added to each well to a final concentration of […] and was incubated at 37° C. for an hour before removal. MTT-formazan crystals formed by metabolically viable cells were dissolved in 200 μL of DMSO for absorbance detection at 550 nm using a SPARK® Multimode microplate reader from TECAN, Switzerland. The 50% cytotoxic concentration (CC50) was calculated using the normalized response (variable slope) model given in GraphPad Prism 7.03 (USA).

[1] = tested on: fatty acid synthase (FAS); test: Western blot analysis, FAS expression in OA-induced HuS-E/2 cells; details: CX at 100-400 μM, 0.1 mM OA-induced HuS-E/2 cells
From the text: The procedure regarding Western blot analysis is as follows. For western blot analysis, an equal amount of protein from each sample was resolved by sodium dodecyl sulfate polyacrylamide gel electrophoresis (SDS-PAGE) and then transferred to polyvinylidene fluoride (PVDF) membranes. Primary antibodies against AMPK (Cat. GTX103487), adipose triglyceride lipase (ATGL) (Cat. GTX109941), carnitine palmitoyl-transferase 1 (CPT1) (Cat. GTX114337), and β-actin (Cat. GTX109639) were from GeneTex (Taiwan), and those against pAMPK (Cat. AP0432), phospho acetyl-CoA carboxylase (pACC) (Cat. AP0298), ACC (Cat. A15606), and fatty acid synthase (FAS) (Cat. A21182) was from ABclonal (China). Horseradish peroxidase (HRP)-conjugated secondary antibodies were from Jackson ImmunoResearch Laboratories, Inc., USA. WesternBright® ECL kits (Advansta Inc., USA) were used for protein visualization. Levels of protein expression were quantified by densitometric analyses.

OA-induced HuS-E/2 cells = test: Oil Red O staining of lipid accumulation in oleic acid (OA)-induced cells; details: 0.1 mM OA, 18 h
Description: To evaluate the effect of CX on lipid accumulation, HuS-E/2 cells were incubated with or without 0.1 mM OA (Cat. O1383) in the presence or absence of CX for 18 hours. The OA stock solution was 3.15 M in DMSO, and stored at −20° C.
The procedure regarding oil red O staining is as follows. Oil Red O stain (Cat. O0625) were from Sigma-Aldrich, USA. The Oil Red O stain stock solution was 3 mg/mL in isopropanol, and stored at room temperature. For microscopic observation, cells were fixed in 4% paraformaldehyde in phosphate-buffered saline (PBS) for 30 min at room temperature, stained with Oil Red O stain working solution (60% Oil Red O stock solution and 40% distilled water) for 1 h at room temperature, and then rinsed with water. Micrographs were captured under a microscope. For quantitative analysis of cellular lipids, cells were washed three times with ice-cold PBS, fixed with 10% formalin for 1 h, washed, stained with Oil Red O solution for 1 h at room temperature, and washed with water to remove excess dye. Cell-bound Oil Red O stain was dissolved in isopropanol at room temperature for 5 min with shaking. The absorbance at 510 nm was measured in a spectrophotometer. The relative lipid content is calculated by setting the readouts of those receiving vehicles to 0% and those receiving free fatty acids alone to 100%.

COc1ccc2[nH]c(=O)oc2c1 [CX, 6-methoxybenzoxazolinone]
effect on the viability of HuS-E/2 cells (HuS-E/2 cells; CX at 25-400 μM, MTT): no significant effect | cytotoxicity in HuS-E/2 cells (HuS-E/2 cells; CX at up to 400 μM): did not inflict cytotoxicity | CC50 (HuS-E/2 cells; HuS-E/2 cells, MTT, n=3, mean±SEM, read-out: CC50 (50% cytotoxic concentration)): 1.43 ± 0.17 mM | FAS expression [1]: downregulated FAS expression | lipid accumulation (micrographs, Oil Red O) (OA-induced HuS-E/2 cells; FIG. 2A): reduced lipid accumulation in a dose-dependent manner | lipid content (Oil Red O, absorbance 510 nm) (OA-induced HuS-E/2 cells; FIG. 2B): diminished the lipid content

Reference: patent US20250134867A1, “METHOD FOR MODULATING LIPID METABOLISM, AMELIORATING NON-ALCOHOLIC FATTY LIVER DISEASE AND METABOLIC SYNDROME BY USING 6-METHOXYBENZOXAZOLINONE” (Taichung District Agricultural Research and Extension …, priority 2023, published 2025)
